Results as given in ChEMBL document CHEMBL3872210, “Synthesis and antiproliferative mechanism of action of pyrrolo[3',2':6,7] cyclohepta[1,2-d]pyrimidin-2-amines as singlet oxygen photosensitizers” (Eur J Med Chem, 2016).
Calls of active or inactive are those of the source. The rule behind the calls is not given here.

How the values were obtained:
[1] = Photocytotoxicity against human MCF7 cells assessed as increase in production of radical oxygen species at 4 uM pretreated for 30 mins followed by 1.5 J/cm2 UV-light irradiation for 5 mins measured after 2 hrs by H2DCFDA dye based fluorescence assay relative to control; type: functional
[2] = Dark toxicity against human HT-29 cells assessed as reduction in cell survival measured after 30 mins by MTT assay; type: cell-based
[3] = tested on: MCF7; assay: Dark toxicity against human MCF7 cells assessed as increase in production of radical oxygen species at 1 to 4 uM after 2 hrs by H2DCFDA dye based fluorescence assay; type: cell-based; details: mcf7, 2 h
[4] = Selectivity index, ratio of CC50 for cytotoxicity against human HeLa cells to EC50 for photocytotoxicity against human HeLa cells; type: toxicity, cell-based; details: read-out: Ratio CC50/EC50
[5] = Photocytotoxicity against human MCF7 cells assessed as reduction in cell survival irradiated with 1.5 J/cm2 UV-light for 5 mins measured after 48 hrs by MTT assay; type: functional, cell-based; details: MCF7, light or radiation study
[6] = Selectivity index, ratio CC50 for cytotoxicity against human MCF7 cells to EC50 for photocytotoxicity against human MCF7 cells; type: toxicity, cell-based; details: read-out: Ratio CC50/EC50
[7] = Photocytotoxicity against human HT-29 cells assessed as reduction in cell survival irradiated with 1.5 J/cm2 UV-light for 5 mins measured after 48 hrs by MTT assay; type: functional, cell-based; details: HT-29, light or radiation study
[8] = Dark toxicity against human MCF7 cells assessed as reduction in cell survival measured after 30 mins by MTT assay; type: cell-based
[9] = Dark toxicity against human HeLa cells assessed as reduction in cell survival measured after 30 mins by MTT assay; type: cell-based
[10] = Photocytotoxicity against human HeLa cells assessed as reduction in cell survival irradiated with 1.5 J/cm2 UV-light for 5 mins measured after 48 hrs by MTT assay; type: functional, cell-based; details: light or radiation study
[11] = Selectivity index, ratio CC50 for cytotoxicity against human HT-29 cells to EC50 for photocytotoxicity against human HT-29 cells; type: toxicity, cell-based; details: read-out: Ratio CC50/EC50
[12] = Induction of lysosomal dysfunction in human MCF7 cells at 2 uM measured after 20 mins under dark condition by Lysotracker green DND staining based confocal microscopic method; type: cell-based; details: mcf7, 20 min
[13] = Induction of singlet oxygen sensitization in aqueous acetonitrile solution irradiated with laser flash photolysis assessed as signal intensity absorbance at 610 nanometer by spectroscopic method; type: physicochemical; details: buffer
[14] = Induction of mitochondrial dysfunction in human MCF7 cells at 2 uM measured after 20 mins under dark condition by Mitotracker orange CMTM-ROS/Nuclear green staining based confocal microscopic method; type: cell-based; details: mcf7, 20 min
[15] = tested on: MCF7; assay: Dark toxicity against human MCF7 cells assessed as increase in production of radical oxygen species at 4 uM after 2 hrs by H2DCFDA dye based fluorescence assay; type: cell-based; details: mcf7, 2 h
[16] = Induction of singlet oxygen photogeneration in aqueous acetonitrile solution of ADPA assessed as photobleaching of anthracene absorption upon irradiation at 2.3 10^-5M at 315 nanometer after 1 hr by UV absorption method; type: physicochemical; details: buffer
[17] = Induction of singlet oxygen sensitization in aqueous acetonitrile solution irradiated with laser flash photolysis assessed as signal intensity absorbance at 355 nanometer by spectroscopic method; type: physicochemical; details: buffer
[18] = Induction of apoptosis in human MCF7 cells assessed as early apoptotic cells at photocytotoxic EC50 irradiated with 1.5 J/cm2 UV-light measured after 6 hrs by 7-AAD/PE annexin V staining based FACS analysis (reference value: 17 %); type: functional
[19] = Induction of singlet oxygen sensitization in aqueous acetonitrile solution irradiated with laser flash photolysis assessed as signal intensity absorbance at 630 nanometer by spectroscopic method; type: physicochemical; details: buffer
[20] = tested on: MCF7; assay: Induction of mitochondrial dysfunction in human MCF7 cells assessed as clustering and swelling in location at 2 uM irradiated with 1.5 J/cm2 UV-light measured after 20 to 120 mins by Mitotracker orange CMTM-ROS/Nuclear green staining based confocal microscopic method; type: functional, cell-based
[21] = tested on: MCF7; assay: Induction of lysosomal membrane impairment in human MCF7 cells assessed as increase in dye accumulation in cytoplasm at 2 uM irradiated with 1.5 J/cm2 UV-light measured after 20 mins by Lysotracker green DND staining based confocal microscopic method; type: functional, cell-based
[22] = Induction of apoptosis in human MCF7 cells assessed as late apoptotic cells at photocytotoxic EC50 irradiated with 1.5 J/cm2 UV-light measured after 6 hrs by 7-AAD/PE annexin V staining based FACS analysis; type: functional
[23] = tested on: MCF7; assay: Induction of lysosomal dysfunction in human MCF7 cells at 2 uM irradiated with 1.5 J/cm2 UV-light measured after 2 hrs by Lysotracker green DND staining based confocal microscopic method; type: functional, cell-based
[24] = tested on: MCF7; assay: Induction of lysosomal dysfunction in human MCF7 cells at 2 uM irradiated with 1.5 J/cm2 UV-light measured after 20 mins by Lysotracker green DND staining based confocal microscopic method; type: functional, cell-based
[25] = tested on: MCF7; assay: Induction of mitochondrial dysfunction in human MCF7 cells assessed as accumulation of mitochondrial signal at perinuclear level at 2 uM irradiated with 1.5 J/cm2 UV-light measured after 20 to 120 mins by Mitotracker orange CMTM-ROS/Nuclear green staining based confocal microscopic method; type: functional, cell-based
[26] = Induction of apoptosis in human MCF7 cells assessed as necrotic cells at photocytotoxic EC50 irradiated with 1.5 J/cm2 UV-light measured after 6 hrs by 7-AAD/PE annexin V staining based FACS analysis; type: functional

Row | Structure (SMILES) | CC50 at 0.5 h [2] [µM] | selectivity ratio [4] | EC50 [5] [µM] | selectivity ratio [6] | EC50 [7] [µM] | CC50 at 0.5 h [8] [µM] | CC50 at 0.5 h [9] [µM] | EC50 [10] [µM] | selectivity ratio [11] | further results
1 | CCOC(=O)c1cc2c(n1Cc1ccccc1)-c1nc(NC3CCCCC3)ncc1CCC2 | > 100 | > 1670 | 0.1 | > 1050 | 0.08 | > 100 | > 100 | 0.06 | > 1240 | Activity [1]: 198%; Activity [3]: Non-Toxic
2 | CCOC(=O)c1cc2c(n1Cc1ccc(OC)cc1)-c1nc(NC3CCCCC3)ncc1CCC2 | > 100 | > 1360 | 0.11 | > 952 | 0.14 | > 100 | > 100 | 0.07 | > 735 | –
3 | CCOC(=O)c1cc2c(n1Cc1ccc(OC)cc1)-c1nc(N)ncc1CCC2 | > 100 | > 312 | 0.67 | > 150 | 0.29 | > 100 | > 100 | 0.32 | > 348 | –
4 | CCOC(=O)c1cc2c(n1Cc1ccc(OC)cc1)-c1nc(Nc3ccccc3)ncc1CCC2 | > 100 | > 559 | 0.86 | > 117 | 0.07 | > 100 | > 100 | 0.18 | > 1470 | –
5 | COc1ccc(Cn2c(C(N)=O)cc3c2-c2nc(N)ncc2CCC3)cc1 | > 100 | > 88 | 3.26 | > 31 | 2 | > 100 | > 100 | 1.14 | > 50 | –
6 | Cn1c(C(N)=O)cc2c1-c1nc(NC3CCCCC3)ncc1CCC2 | > 100 | > 121 | 1.85 | 41 | 1.5 | 75.2 | > 100 | 0.82 | > 67 | –
7 | COc1ccc(Cn2c(C(N)=O)cc3c2-c2nc(NC4CCCCC4)ncc2CCC3)cc1 | > 100 | > 813 | 0.18 | > 549 | 0.41 | > 100 | > 100 | 0.12 | > 243 | –
8 | COc1ccc(Cn2c(C(N)=O)cc3c2-c2nc(Nc4ccccc4)ncc2CCC3)cc1 | > 100 | > 610 | 0.28 | > 358 | 0.28 | > 100 | > 100 | 0.16 | > 360 | –
9 | Cn1c(C(N)=O)cc2c1-c1nc(N)ncc1CCC2 | > 100 | > 11 | 66 | > 1.5 | > 100 | > 100 | > 100 | 8.75 | – | Activity [12]: Non-Toxic; Activity [13]: 0.0146; Activity [14]: Non-Toxic; Activity [15]: Non-Toxic; Activity [16]: Active; Activity [17]: 0.012; Activity [18]: 22%
10 | NC(=O)c1cc2c(n1Cc1ccccc1)-c1nc(Nc3ccccc3)ncc1CCC2 | > 100 | > 397 | 1.04 | 64 | 0.36 | 66.5 | > 100 | 0.25 | > 281 | –
11 | Cn1c(C(N)=O)cc2c1-c1nc(Nc3ccccc3)ncc1CCC2 | > 100 | > 90 | 4.96 | > 20 | 1.85 | > 100 | > 100 | 1.12 | > 54 | –
12 | CCOC(=O)c1cc2c(n1C)-c1nc(N)ncc1CCC2 | > 100 | > 139 | 1.54 | > 65 | 1.72 | > 100 | > 100 | 0.72 | > 58 | –
13 | CCOC(=O)c1cc2c(n1C)-c1nc(NC3CCCCC3)ncc1CCC2 | > 100 | > 1270 | 0.08 | > 1250 | 0.09 | > 100 | > 100 | 0.08 | > 1110 | Activity [19]: 0.052; Activity [1]: 222%; Activity [12]: Non-Toxic; Activity [20]: Active; Activity [21]: Active; Activity [3]: Non-Toxic; Activity [14]: Non-Toxic; Activity [22]: 13%; Activity [23]: Active; Activity [16]: Active; Activity [24]: Active; Activity [17]: 0.012; Activity [25]: Active; Activity [26]: 11%; Activity [18]: 47%
14 | CCOC(=O)c1cc2c(n1C)-c1nc(Nc3ccccc3)ncc1CCC2 | > 100 | > 1040 | 0.14 | > 709 | 0.29 | > 100 | > 100 | 0.1 | > 348 | –
15 | CCOC(=O)c1cc2c(n1Cc1ccccc1)-c1nc(N)ncc1CCC2 | 79.2 | > 455 | 0.79 | 93 | 0.28 | 73.6 | > 100 | 0.22 | 284 | –
16 | NC(=O)c1cc2c(n1Cc1ccccc1)-c1nc(NC3CCCCC3)ncc1CCC2 | > 100 | > 463 | 0.18 | > 569 | 0.37 | > 100 | > 100 | 0.22 | > 270 | –
17 | CCOC(=O)c1cc2c(n1Cc1ccccc1)-c1nc(Nc3ccccc3)ncc1CCC2 | > 100 | > 355 | 0.24 | > 412 | 0.7 | > 100 | > 100 | 0.28 | > 143 | –
18 | NC(=O)c1cc2c(n1Cc1ccccc1)-c1nc(N)ncc1CCC2 | > 100 | > 48 | 3.69 | > 27 | 2.17 | > 100 | > 100 | 2.09 | > 46 | –
